ChEMBL document CHEMBL2074566, “Azithromycin reverses anticancer drug resistance and modifies hepatobiliary excretion of doxorubicin in rats” (Eur J Pharmacol, 2004)

Molecular target: ATP-dependent translocase ABCB1 (Homo sapiens, UniProt P08183)
Assay: TP_TRANSPORTER: cell accumulation of doxorubicin in the presence of Azithromycin at a concentration of 0.3uM and 1mM in K562/ADR cells
Assay type: functional, cell-based

Sequence of ATP-dependent translocase ABCB1 (P08183 whole entry): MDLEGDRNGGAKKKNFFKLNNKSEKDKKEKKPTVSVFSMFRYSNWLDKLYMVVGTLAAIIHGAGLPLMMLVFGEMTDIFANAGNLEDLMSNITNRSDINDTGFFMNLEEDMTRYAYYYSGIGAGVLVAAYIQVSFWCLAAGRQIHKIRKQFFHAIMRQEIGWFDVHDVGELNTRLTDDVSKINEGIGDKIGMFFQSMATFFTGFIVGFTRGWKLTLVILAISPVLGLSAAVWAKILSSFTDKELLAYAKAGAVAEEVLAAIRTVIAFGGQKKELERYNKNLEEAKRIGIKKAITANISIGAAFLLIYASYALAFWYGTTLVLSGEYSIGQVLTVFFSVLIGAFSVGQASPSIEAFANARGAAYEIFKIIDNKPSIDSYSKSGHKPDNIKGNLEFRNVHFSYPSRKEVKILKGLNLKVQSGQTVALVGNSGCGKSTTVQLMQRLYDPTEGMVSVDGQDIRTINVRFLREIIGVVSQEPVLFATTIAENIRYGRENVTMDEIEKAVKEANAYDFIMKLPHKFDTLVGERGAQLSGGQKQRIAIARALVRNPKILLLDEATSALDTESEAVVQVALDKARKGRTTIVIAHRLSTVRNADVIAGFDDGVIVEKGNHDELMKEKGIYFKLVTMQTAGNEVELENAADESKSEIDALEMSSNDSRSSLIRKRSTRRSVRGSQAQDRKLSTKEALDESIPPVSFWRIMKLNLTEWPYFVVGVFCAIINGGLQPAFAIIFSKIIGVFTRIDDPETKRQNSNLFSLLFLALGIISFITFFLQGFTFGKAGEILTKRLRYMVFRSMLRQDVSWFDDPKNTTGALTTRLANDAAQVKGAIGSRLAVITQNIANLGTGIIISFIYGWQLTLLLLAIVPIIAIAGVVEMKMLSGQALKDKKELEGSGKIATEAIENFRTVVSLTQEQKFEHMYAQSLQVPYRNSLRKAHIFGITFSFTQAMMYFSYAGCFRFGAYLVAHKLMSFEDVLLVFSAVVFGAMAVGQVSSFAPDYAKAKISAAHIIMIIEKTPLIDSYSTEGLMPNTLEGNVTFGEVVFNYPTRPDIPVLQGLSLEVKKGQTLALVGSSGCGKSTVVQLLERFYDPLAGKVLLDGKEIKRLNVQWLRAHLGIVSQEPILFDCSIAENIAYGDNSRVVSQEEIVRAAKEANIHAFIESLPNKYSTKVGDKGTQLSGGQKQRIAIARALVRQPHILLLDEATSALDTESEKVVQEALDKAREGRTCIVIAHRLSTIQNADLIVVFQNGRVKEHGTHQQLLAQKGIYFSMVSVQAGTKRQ

SMILES: CC[C@H]1OC(=O)[C@H](C)[C@@H](O[C@H]2C[C@@](C)(OC)[C@@H](O)[C@H](C)O2)[C@H](C)[C@@H](O[C@@H]2O[C@H](C)C[C@H](N(C)C)[C@H]2O)[C@](C)(O)C[C@@H](C)CN(C)[C@H](C)[C@@H](O)[C@]1(C)O [AZITHROMYCIN]
- Activity: inhibitor [+]
